According to US20250115620A1, “BRIDGED TRICYCLIC CARBAMOYLPYRIDONE COMPOUNDS AND USES THEREOF” (Gilead Sciences, Inc., priority 2022, published 2025):
pEC50: −log10 of the molar value. Read-outs that look alike come from different tables or passages of the source.

Experiments:
[1] = test system: HIV-1 (IIIB); experiment: microbe, parasite or virus in culture; assay type: cell-based; conditions: Human immunodeficiency virus 1, IIIB, MT4, 120 h, read-out: MT4 EC50
[2] = test system: pLAI reporter virus; experiment: microbe, parasite or virus in culture; assay type: cell-based, HIV; conditions: Human immunodeficiency virus 1, MT4, 72 h
[3] = in vitro; conditions: human, uninfected MT-4 cells
[4] = HIV-1 (IIIB) in MT-4 cells, 5 days incubation, Cell Titer Glo

`C[C@H]1CCC2(N=c3ccccc3=N2)[C@H]2CN1C(=O)c1c(O)c(=O)c(C(=O)NCc3c(F)cc(F)cc3F)cn12` [Example 142, (3′S,7′R)-12′-hydroxy-3′-methyl-1′,11′-dioxo-N-(2,4,6-trifluorobenzyl)-1′,4′,5′,11′-tetrahydro-3′H,7′H-spiro[benzo[d]imidazole-2,6′-[2,7]methanopyrido[1,2-a][1,4]diazonine]-10′-carboxamide] gave a pEC50 [1] of 8.41, a pEC50 ([2]; read-out: RLUC 50% HS EC50) of 9.15 and a pEC50 ([2]; read-out: RLUC CCM EC50) of 9.30. It also gave a CC50 at 5 days [3] of no less than 50000 nM.

`C[C@H]1CC[C@]2(CC(=O)N(Cc3ccc(F)cc3F)O2)[C@H]2CN1C(=O)c1c(O)c(=O)c(C(=O)NCc3c(F)cc(F)cc3F)cn12` [Example 110, (3′S,5S,7′R)-2-(2,4-difluorobenzyl)-12′-hydroxy-3′-methyl-1′,3,11′-trioxo-N-(2,4,6-trifluorobenzyl)-1′,4′,5′,11′-tetrahydro-3′H,7′H-spiro[isoxazolidine-5,6′-[2,7]methanopyrido[1,2-a][1,4]diazonine]-10′-carboxamide] showed a pEC50 [1, 4] of 8.92, a pEC50 ([2]; read-out: RLUC 50% HS EC50) of 8.54 and a pEC50 ([2]; read-out: RLUC CCM EC50) of 9.52. It also gave a CC50 at 5 days [3] of 12000 nM.

Work on `C[C@H]1CC[C@]2(CO2)[C@H]2CN1C(=O)c1c(O)c(=O)c(C(=O)NCc3c(F)cc(F)cc3F)cn12` [Example 165, (2R,3′S,7′R)-12′-hydroxy-3′-methyl-1′,11′-dioxo-N-(2,4,6-trifluorobenzyl)-1′,4′,5′,11′-tetrahydro-3′H,7′H-spiro[oxirane-2,6′-[2,7]methanopyrido[1,2-a][1,4]diazonine]-10′-carboxamide] yielded a pEC50 [1, 4] of 8.85, a pEC50 ([2]; read-out: RLUC 50% HS EC50) of 8.27 and a pEC50 ([2]; read-out: RLUC CCM EC50) of 9.52. It also gave a CC50 at 5 days [3] of 6590 nM.

`CC1=NO[C@@]2(CC[C@H](C)N3C[C@H]2n2cc(C(=O)NCc4ccc(F)cc4F)c(=O)c(O)c2C3=O)[C@@H]1O` [Example 30, (3′S,4R,5R,7′R)—N-(2,4-difluorobenzyl)-4,12′-dihydroxy-3,3′-dimethyl-1′,11′-dioxo-1′,4′,5′,11′-tetrahydro-3′H,4H,7′H-spiro[isoxazole-5,6′-[2,7]methanopyrido[1,2-a][1,4]diazonine]-10′-carboxamide] showed a pEC50 [1, 4] of 8.92, a pEC50 ([2]; read-out: RLUC 50% HS EC50) of 7.10 and a pEC50 ([2]; read-out: RLUC CCM EC50) of 9.30. The CC50 at 5 days [3] was 40000 nM.

Work on `COC1=NO[C@@]2(CC[C@H](C)N3C[C@H]2n2cc(C(=O)NCc4cc(F)c(F)cc4F)c(=O)c(O)c2C3=O)C1` [Example 65, (3′S,5S,7′R)-12′-hydroxy-3-methoxy-3′-methyl-1′,11′-dioxo-N-(2,4,5-trifluorobenzyl)-1′,4′,5′,11′-tetrahydro-3′H,4H,7′H-spiro[isoxazole-5,6′-[2,7]methanopyrido[1,2-a][1,4]diazonine]-10′-carboxamide] yielded a pEC50 [1, 4] of 8.80, a pEC50 ([2]; read-out: RLUC 50% HS EC50) of 6.97 and a pEC50 ([2]; read-out: RLUC CCM EC50) of 9.22. The CC50 at 5 days [3] was 26300 nM.

Work on `CC1=NO[C@@]2(CC[C@H](C)N3C[C@H]2n2cc(C(=O)NCc4ccc(F)cc4F)c(=O)c(O)c2C3=O)[C@@H]1F` (single isomer, unassigned) [Example 27 (peak 2)] yielded a pEC50 [1, 4] of 9.22, a pEC50 ([2]; read-out: RLUC 50% HS EC50) of 6.80 and a pEC50 ([2]; read-out: RLUC CCM EC50) of 9.52. The CC50 at 5 days [3] was 45600 nM.

In the case of `C[C@H]1CC[C@]2(CC(=O)N(Cc3ccc4ncsc4c3)O2)[C@H]2CN1C(=O)c1c(O)c(=O)c(C(=O)NCc3c(F)cc(F)cc3F)cn12` [Example 112, (3′S,5S,7′R)-2-(benzo[d]thiazol-6-ylmethyl)-12′-hydroxy-3′-methyl-1′,3,11′-trioxo-N-(2,4,6-trifluorobenzyl)-1′,4′,5′,11′-tetrahydro-3′H,7′H-spiro[isoxazolidine-5,6′-[2,7]methanopyrido[1,2-a][1,4]diazonine]-10′-carboxamide], the pEC50 [1, 4] was 9.15, the pEC50 ([2]; read-out: RLUC 50% HS EC50) was 9.40 and the pEC50 ([2]; read-out: RLUC CCM EC50) was 9.70. The CC50 at 5 days [3] was no less than 50000 nM.

`C[C@H]1CC[C@]2(CC(C(F)(F)F)=NO2)[C@H]2CN1C(=O)c1c(O)c(=O)c(C(=O)NCc3c(F)cc(F)cc3F)cn12` [Example 73, (3′S,5S,7′R)-12′-hydroxy-3′-methyl-1′,11′-dioxo-N-(2,4,6-trifluorobenzyl)-3-(trifluoromethyl)-1′,4′,5′,11′-tetrahydro-3′H,4H,7′H-spiro[isoxazole-5,6′-[2,7]methanopyrido[1,2-a][1,4]diazonine]-10′-carboxamide] gave a pEC50 [1, 4] of 8.96, a pEC50 ([2]; read-out: RLUC 50% HS EC50) of 7.19 and a pEC50 ([2]; read-out: RLUC CCM EC50) of 9.70. For the same molecule, the CC50 at 5 days [3] was 31200 nM.

`[2H]C([2H])([2H])OC1=NO[C@@]2(CC[C@H](C)N3C[C@H]2n2cc(C(=O)NCc4c(F)cc(F)cc4F)c(=O)c(O)c2C3=O)C1([2H])[2H]` [Example 39, (3′S,5S,7′R)-12′-hydroxy-3-(methoxy-d3)-3′-methyl-1′,11′-dioxo-N-(2,4,6-trifluorobenzyl)-1′,4′,5′,11′-tetrahydro-3′H,4H,7′H-spiro[isoxazole-5,6′-[2,7]methanopyrido[1,2-a][1,4]diazonine]-4,4-d2-10′-carboxamide] showed a pEC50 [1, 4] of 9.00, a pEC50 ([2]; read-out: RLUC 50% HS EC50) of 7.45 and a pEC50 ([2]; read-out: RLUC CCM EC50) of 9.52. The CC50 at 5 days [3] was 23500 nM.

With `C[C@H]1CC[C@]2(CC(=O)N(Cc3ccc4scnc4c3)O2)[C@H]2CN1C(=O)c1c(O)c(=O)c(C(=O)NCc3c(F)cc(F)cc3F)cn12` [Example 113, (3′S,5S,7′R)-2-(benzo[d]thiazol-5-ylmethyl)-12′-hydroxy-3′-methyl-1′,3,11′-trioxo-N-(2,4,6-trifluorobenzyl)-1′,4′,5′,11′-tetrahydro-3′H,7′H-spiro[isoxazolidine-5,6′-[2,7]methanopyrido[1,2-a][1,4]diazonine]-10′-carboxamide] the pEC50 [1, 4] was 9.15, the pEC50 ([2]; read-out: RLUC 50% HS EC50) was 9.15 and the pEC50 ([2]; read-out: RLUC CCM EC50) was 10.00. The CC50 at 5 days [3] was no less than 50000 nM.

In the case of `C[C@H]1CC[C@]2(Cc3ccccc3O2)[C@H]2CN1C(=O)c1c(O)c(=O)c(C(=O)NCc3c(F)cc(F)cc3F)cn12` [Example 143, (2S,3′S,7′R)-12′-hydroxy-3′-methyl-1′,11′-dioxo-N-(2,4,6-trifluorobenzyl)-1′,4′,5′,11′-tetrahydro-3H,3′H,7′H-spiro[benzofuran-2,6′-[2,7]methanopyrido[1,2-a][1,4]diazonine]-10′-carboxamide], the pEC50 [1, 4] was 8.85, the pEC50 ([2]; read-out: RLUC 50% HS EC50) was 7.11 and the pEC50 ([2]; read-out: RLUC CCM EC50) was 10.00. For the same molecule, the CC50 at 5 days [3] was 24400 nM.

For `CC1=NO[C@@]2(CC[C@H](CF)N3C[C@H]2n2cc(C(=O)NCc4c(F)cc(F)cc4F)c(=O)c(O)c2C3=O)C1` [Example 54, (3′R,5S,7′R)-3′-(fluoromethyl)-12′-hydroxy-3-methyl-1′,11′-dioxo-N-(2,4,6-trifluorobenzyl)-1′,4′,5′,11′-tetrahydro-3′H,4H,7′H-spiro[isoxazole-5,6′-[2,7]methanopyrido[1,2-a][1,4]diazonine]-10′-carboxamide], the pEC50 [1, 4] was 9.15, the pEC50 ([2]; read-out: RLUC 50% HS EC50) was 7.27 and the pEC50 ([2]; read-out: RLUC CCM EC50) was 9.52. It also gave a CC50 at 5 days [3] of 27300 nM.

Work on `CC1=NO[C@@]2(CC[C@H](C)N3C[C@H]2n2cc(C(=O)NCc4ccc(F)cc4F)c(=O)c(O)c2C3=O)[C@H]1F` (single isomer, unassigned) [Example 27 (peak 1)] yielded a pEC50 [1, 4] of 8.89, a pEC50 ([2]; read-out: RLUC 50% HS EC50) of 6.76 and a pEC50 ([2]; read-out: RLUC CCM EC50) of 9.70. For the same molecule, the CC50 at 5 days [3] was 33100 nM.

With `COC1=NO[C@@]2(CC[C@H](CF)N3C[C@H]2n2cc(C(=O)NCc4c(F)cc(F)cc4F)c(=O)c(O)c2C3=O)C1` [Example 99, (3′R,5S,7′R)-3′-(fluoromethyl)-12′-hydroxy-3-methoxy-1′,11′-dioxo-N-(2,4,6-trifluorobenzyl)-1′,4′,5′,11′-tetrahydro-3′H,4H,7′H-spiro[isoxazole-5,6′-[2,7]methanopyrido[1,2-a][1,4]diazonine]-10′-carboxamide] the pEC50 [1, 4] was 8.82, the pEC50 ([2]; read-out: RLUC 50% HS EC50) was 7.71 and the pEC50 ([2]; read-out: RLUC CCM EC50) was 9.70. For the same molecule, the CC50 at 5 days [3] was 36500 nM.

For `C[C@H]1CC[C@]2(CC(c3ccccn3)=NO2)[C@H]2CN1C(=O)c1c(O)c(=O)c(C(=O)NCc3ccc(F)cc3F)cn12` [Example 13, (3′S,5S,7′R)—N-(2,4-difluorobenzyl)-12′-hydroxy-3′-methyl-1′,11′-dioxo-3-(pyridin-2-yl)-1′,4′,5′,11′-tetrahydro-3′H,4H,7′H-spiro[isoxazole-5,6′-[2,7]methanopyrido[1,2-a][1,4]diazonine]-10′-carboxamide], the pEC50 [1, 4] was 8.37, the pEC50 ([2]; read-out: RLUC 50% HS EC50) was 8.68 and the pEC50 ([2]; read-out: RLUC CCM EC50) was 8.82. It also gave a CC50 at 5 days [3] of no less than 50000 nM.

With `C[C@H]1CC[C@]2(CC(CF)=NO2)[C@H]2CN1C(=O)c1c(O)c(=O)c(C(=O)NCc3ccc(F)cc3F)cn12` [Example 17, (3′S,5S,7′R)—N-(2,4-difluorobenzyl)-3-(fluoromethyl)-12′-hydroxy-3′-methyl-1′,11′-dioxo-1′,4′,5′,11′-tetrahydro-3′H,4H,7′H-spiro[isoxazole-5,6′-[2,7]methanopyrido[1,2-a][1,4]diazonine]-10′-carboxamide] the pEC50 [1, 4] was 9.22, the pEC50 ([2]; read-out: RLUC 50% HS EC50) was 6.65 and the pEC50 ([2]; read-out: RLUC CCM EC50) was 9.70. The CC50 at 5 days [3] was 20500 nM.

For `C[C@H]1CC[C@]2(CC(c3cccnc3)=NO2)[C@H]2CN1C(=O)c1c(O)c(=O)c(C(=O)NCc3ccc(F)cc3F)cn12` [Example 14, (3′S,5S,7′R)—N-(2,4-difluorobenzyl)-12′-hydroxy-3′-methyl-1′,11′-dioxo-3-(pyridin-3-yl)-1′,4′,5′,11′-tetrahydro-3′H,4H,7′H-spiro[isoxazole-5,6′-[2,7]methanopyrido[1,2-a][1,4]diazonine]-10′-carboxamide], the pEC50 [1, 4] was 8.80, the pEC50 ([2]; read-out: RLUC 50% HS EC50) was 8.39 and the pEC50 ([2]; read-out: RLUC CCM EC50) was 9.10. For the same molecule, the CC50 at 5 days [3] was 16700 nM.

`COC1=NO[C@@]2(CC[C@H](C)N3C[C@H]2n2cc(C(=O)NCc4c(F)cc(F)cc4F)c(=O)c(O)c2C3=O)C1` [Example 36, (3′S,5S,7′R)-12′-hydroxy-3-methoxy-3′-methyl-1′,11′-dioxo-N-(2,4,6-trifluorobenzyl)-1′,4′,5′,11′-tetrahydro-3′H,4H,7′H-spiro[isoxazole-5,6′-[2,7]methanopyrido[1,2-a][1,4]diazonine]-10′-carboxamide] showed a pEC50 [1, 4] of 9.15, a pEC50 ([2]; read-out: RLUC 50% HS EC50) of 7.56 and a pEC50 ([2]; read-out: RLUC CCM EC50) of 9.70. For the same molecule, the CC50 at 5 days [3] was 19500 nM.
